Results as given in patent publication US20230357179A1, “RAF KINASE INHIBITORS AND METHODS OF USE THEREOF” (Deciphera Pharmaceuticals, LLC, priority 2021, published 2023).

Tests used:
A-Raf kinase = target: T1, A-Raf kinase (Homo sapiens, UniProt P10398, Y301D/Y302D); test: Biochemical assay for A-Raf.1 (coupled pyruvate kinase/lactate dehydrogenase); settings: read-out: ARAF.1 IC50
T1 construct: purchased Sigma
In short: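 A-Raf (5.55 nM) phosphorylating 30.1 nM MEK with 1 mM ATP was monitored by pyruvate kinase/lactate dehydrogenase-coupled NADH oxidation at 340 nm for 6 h at 30° C, in pH 7.5 Tris buffer with 15 mM MgCl2, 1% DMSO. Rates from 4–5 h gave percent inhibition; IC50 by four-parameter fit.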

A375 cells = test: A375 cell proliferation assay (1), resazurin, 96-well; type: cell-based; settings: Homo sapiens, A-375, inhibition of cell proliferation
In short: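 Viability was read by resazurin fluorescence at 540 nm excitation and 600 nm emission, using a 440 μM solution added for 5–6 h at the end of culture. IC50 came from the curve fit.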

B-Raf (V600E) kinase = target: T2, B-Raf (V600E) kinase (Homo sapiens, UniProt P15056, V600E); test: Biochemical assay for B-Raf (V600E).1 (coupled pyruvate kinase/lactate dehydrogenase); settings: read-out: BRAF V600E.1 IC50
T2 construct: B-Raf (V600E) residues 416-766 with a; GST (N); purchased SignalChem
T2 sequence (P15056 416-766 V600E): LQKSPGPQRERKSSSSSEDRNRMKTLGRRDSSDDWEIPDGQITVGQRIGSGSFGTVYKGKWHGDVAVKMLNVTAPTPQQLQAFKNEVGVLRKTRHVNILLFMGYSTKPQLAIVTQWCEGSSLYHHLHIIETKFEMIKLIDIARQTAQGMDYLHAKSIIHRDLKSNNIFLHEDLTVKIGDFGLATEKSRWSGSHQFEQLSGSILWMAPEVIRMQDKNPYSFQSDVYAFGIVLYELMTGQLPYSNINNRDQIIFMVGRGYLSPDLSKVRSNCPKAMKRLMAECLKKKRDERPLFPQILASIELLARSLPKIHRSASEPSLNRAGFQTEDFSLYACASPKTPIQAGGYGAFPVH
In short: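 0.03 nM B-Raf(V600E) phosphorylating 30.1 nM MEK at 1 mM ATP, pH 7.5, coupled to PK/LDH, with NADH oxidation followed at 340 nm for 6 h at 30 °C. Rates taken from the 3-4 h window. IC50 from a four-parameter fit of percent inhibition.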

WM3928 cells = test: WM3928 cell proliferation assay (1), resazurin, 96-well; type: cell-based; settings: inhibition of cell proliferation
Protocol: WM3928 Cell Proliferation Assay (1)
WM3928 cells (#WM3928-01-0001) are obtained from Rockland Immunochemicals Inc (Gilbertsville, PA). Briefly, cells were grown in MCDB 153 medium (Sigma, #M7403, St. Louis, MO) supplemented with 20% Leibovitz's L-15 (ThermoFisher #11415-064, Waltham, MA), 2% heat inactivated fetal bovine serum (ThermoFisher, #A3840001, Waltham, MA), 5 μg/mL Insulin (Bovine Pancreas) (Sigma, #I0516, St. Louis, MO), 1.68 mM Calcium Chloride (Sigma, #C-34006, St. Louis, MO) and 1% Penicillin/Streptomycin/L-Glutamine (ThermoFisher #10378016, Waltham, MA) at 37° C., 5% CO2, and 95% humidity. Cells are expanded until reaching 70-95% confluency at which point they are subcultured or harvested for assay use. A serial dilution of test compound is dispensed into a 96-well black clear bottom plate in triplicate. Three thousand cells are added per well in 200 μL complete growth medium in the 96-well plate. Plates are incubated for 67-72 hours at 37° C., 5% CO2, and 95% humidity. At the end of the incubation, 40 μL of a 440 μM solution of resazurin (Sigma, #199303, St. Louis, MO) in PBS is added to each well of the plate and plates are incubated for an additional 6-7 hours at 37° C., 5% CO2, and 95% humidity. Plates are read on a Synergy2 or equivalent reader (Biotek, Winooski VT) using an excitation of 540 nm and an emission of 600 nm. Data is analyzed using Prism software (GraphPad, San Diego, CA) to calculate IC50 values.

T1 sequence (P10398 with tags, fused parts or gaps Y301D/Y302D): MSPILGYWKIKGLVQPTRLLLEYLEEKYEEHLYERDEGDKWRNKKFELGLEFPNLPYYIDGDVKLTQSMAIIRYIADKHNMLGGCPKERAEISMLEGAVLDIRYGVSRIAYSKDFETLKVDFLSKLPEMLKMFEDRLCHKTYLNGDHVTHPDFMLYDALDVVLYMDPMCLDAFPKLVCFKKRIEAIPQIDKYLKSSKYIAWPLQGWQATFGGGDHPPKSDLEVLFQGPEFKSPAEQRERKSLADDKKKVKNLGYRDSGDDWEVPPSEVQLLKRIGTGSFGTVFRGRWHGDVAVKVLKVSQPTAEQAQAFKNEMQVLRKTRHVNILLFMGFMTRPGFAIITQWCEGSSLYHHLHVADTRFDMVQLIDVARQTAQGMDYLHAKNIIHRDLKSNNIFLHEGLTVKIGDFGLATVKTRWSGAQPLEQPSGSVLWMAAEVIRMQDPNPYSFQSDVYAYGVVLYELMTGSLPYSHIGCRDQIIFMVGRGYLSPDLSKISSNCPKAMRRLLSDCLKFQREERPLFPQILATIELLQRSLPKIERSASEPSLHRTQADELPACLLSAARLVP

## CC(=O)Nc1cc(-c2cc(-c3cc(NC(=O)NCCC4(C)CC4)c(F)cc3C)cc(OCCO)n2)ccn1 [Example 33]
A-Raf kinase
  IC50: 100 to 500 nM
A375 cells
  IC50: ≤ 100 nM
B-Raf (V600E) kinase
  IC50: ≤ 100 nM
WM3928 cells
  IC50: ≤ 100 nM

## Cc1cc(F)c(NC(=O)NCCC2(C)CC2)cc1-c1cc(OCC(C)(C)O)nc(-c2ccncc2)c1 [Example 34]
A-Raf kinase
  IC50: > 1000 nM
A375 cells
  IC50: 1000 to 10000 nM
B-Raf (V600E) kinase
  IC50: ≤ 100 nM
WM3928 cells
  IC50: 100 to 500 nM

## Cc1cc(F)c(NC(=O)NCCC2(C)CC2)cc1-c1cccc(-c2ccnc(NC(=O)C3CC3)c2)c1 [Example 64]
A-Raf kinase
  IC50: > 1000 nM
A375 cells
  IC50: 1000 to 10000 nM
B-Raf (V600E) kinase
  IC50: ≤ 100 nM
WM3928 cells
  IC50: 100 to 500 nM

## Cc1cc(F)c(NC(=O)NCCC2(C)CC2)cc1-c1cccc(-c2cc(NC(=O)C3CC3)ncn2)c1 [Example 65]
A-Raf kinase
  IC50: > 1000 nM
A375 cells
  IC50: 1000 to 10000 nM
B-Raf (V600E) kinase
  IC50: ≤ 100 nM
WM3928 cells
  IC50: 100 to 500 nM

## Cc1cc(F)c(NC(=O)NCCC(C)(C)C#N)cc1-c1cccc(-c2ccnc(NC(=O)C3CC3)c2)c1 [Example 66]
A-Raf kinase
  IC50: > 1000 nM
A375 cells
  IC50: 1000 to 10000 nM
B-Raf (V600E) kinase
  IC50: ≤ 100 nM
WM3928 cells
  IC50: 100 to 500 nM

## Cc1cc(F)c(NC(=O)NCCC(C)(C)C#N)cc1-c1cccc(-c2cc(NC(=O)C3CC3)ncn2)c1 [Example 67]
A-Raf kinase
  IC50: 100 to 500 nM
A375 cells
  IC50: 1000 to 10000 nM
B-Raf (V600E) kinase
  IC50: ≤ 100 nM
WM3928 cells
  IC50: 1000 to 10000 nM

## Cc1ccc(NC(=O)N2CCC(C(F)(F)F)C2)cc1-c1cccc(-c2cc(NC(=O)C3CC3)ncn2)c1 (stereo not shown) [Example 73]
A-Raf kinase
  IC50: 500 to 1000 nM
A375 cells
  IC50: 100 to 500 nM
B-Raf (V600E) kinase
  IC50: ≤ 100 nM
WM3928 cells
  IC50: ≤ 100 nM

## Cc1ncc(NC(=O)NCCC(C)(C)F)cc1-c1ccnc(-c2ccnc(NC(=O)C3CC3)c2)c1 [Example 75]
A-Raf kinase
  IC50: > 1000 nM
A375 cells
  IC50: 1000 to 10000 nM
B-Raf (V600E) kinase
  IC50: ≤ 100 nM
WM3928 cells
  IC50: 500 to 1000 nM

## Cc1cc(F)c(NC(=O)NCCC2(C)CC2)cc1-c1cc(OCCO)nc(-c2ccnc(NC(=O)C3CC3)c2)c1 [Example 76]
A-Raf kinase
  IC50: 100 to 500 nM
A375 cells
  IC50: ≤ 100 nM
B-Raf (V600E) kinase
  IC50: ≤ 100 nM
WM3928 cells
  IC50: ≤ 100 nM

## COC(=O)Nc1cc(-c2cc(-c3cc(NC(=O)NCCC4(C)CC4)c(F)cc3C)cc(OCCO)n2)ccn1 [Example 77]
A-Raf kinase
  IC50: > 1000 nM
A375 cells
  IC50: ≤ 100 nM
B-Raf (V600E) kinase
  IC50: ≤ 100 nM
WM3928 cells
  IC50: ≤ 100 nM

## Cc1cc(F)c(NC(=O)NCCC2(C)CC2)cc1-c1ccnc(-c2ccnc3c2CC(=O)N3)c1 [Example 79]
A-Raf kinase
  IC50: > 1000 nM
A375 cells
  IC50: 1000 to 10000 nM
B-Raf (V600E) kinase
  IC50: ≤ 100 nM
WM3928 cells
  IC50: 100 to 500 nM

## Cc1cc(F)c(NC(=O)NC2CC(C)(C)C2)cc1-c1cc(OCCO)nc(-c2ccnc(NC(=O)C3CC3)c2)c1 [Example 80]
A-Raf kinase
  IC50: > 1000 nM
A375 cells
  IC50: ≤ 100 nM
B-Raf (V600E) kinase
  IC50: ≤ 100 nM
WM3928 cells
  IC50: ≤ 100 nM

## Cc1ncc(NC(=O)NCCC2(C)CC2)cc1-c1nccc(-c2ccnc(NC(=O)C3CC3)c2)n1 [Example 81]
A-Raf kinase
  IC50: > 1000 nM
A375 cells
  IC50: 1000 to 10000 nM
B-Raf (V600E) kinase
  IC50: ≤ 100 nM
WM3928 cells
  IC50: 500 to 1000 nM

## COC(C)(C)CCNC(=O)Nc1cnc(C)c(-c2nccc(-c3ccnc(NC(=O)C4CC4)c3)n2)c1 [Example 82]
A-Raf kinase
  IC50: > 1000 nM
A375 cells
  IC50: 1000 to 10000 nM
B-Raf (V600E) kinase
  IC50: ≤ 100 nM
WM3928 cells
  IC50: 1000 to 10000 nM

## COC(C)(C)CCNC(=O)Nc1cc(-c2nccc(-c3ccnc(NC(=O)C4CC4)c3)n2)c(C)cc1F [Example 83]
A-Raf kinase
  IC50: 500 to 1000 nM
A375 cells
  IC50: 1000 to 10000 nM
B-Raf (V600E) kinase
  IC50: ≤ 100 nM
WM3928 cells
  IC50: 100 to 500 nM

## COC1(CCNC(=O)Nc2cnc(C)c(-c3cccc(-c4cc(NC(=O)C5CC5)ncn4)c3)c2)CC1 [Example 84]
A-Raf kinase
  IC50: > 1000 nM
A375 cells
  IC50: 1000 to 10000 nM
B-Raf (V600E) kinase
  IC50: ≤ 100 nM
WM3928 cells
  IC50: 500 to 1000 nM

## COC(=O)Nc1cc(-c2cnnc(-c3cc(NC(=O)N4CCC(CC(F)(F)F)C4)ccc3C)c2)ccn1 (stereo not shown) [Example 186]
A-Raf kinase
  IC50: > 1000 nM
A375 cells
  IC50: 1000 to 10000 nM
B-Raf (V600E) kinase
  IC50: ≤ 100 nM
WM3928 cells
  IC50: 500 to 1000 nM

## Cc1ccc(NC(=O)N2CCC(CC(F)(F)F)C2)cc1-c1cncc(-c2cc(NC(=O)C3CC3)ncn2)c1 (stereo not shown) [Example 194]
A-Raf kinase
  IC50: > 1000 nM
A375 cells
  IC50: ≤ 100 nM
B-Raf (V600E) kinase
  IC50: ≤ 100 nM
WM3928 cells
  IC50: ≤ 100 nM

## Cc1ccc(NC(=O)N2CC[C@H](C(F)(F)F)C2)cc1-c1cncc(-c2cc(NC(=O)C3CC3)ncn2)c1 [Example 195]
A-Raf kinase
  IC50: 500 to 1000 nM
A375 cells
  IC50: 100 to 500 nM
B-Raf (V600E) kinase
  IC50: ≤ 100 nM
WM3928 cells
  IC50: ≤ 100 nM
